# Tested on: 616215-338-R-J1-PDC complex spheroid viability
# Test: Anticancer human tumor 616215-338-R-J1-PDC patient-derived colon adenocarcinoma cell line growth inhibition [POLQ]
# Details: for IC50: curve of first compound; for viability, T/C: stronger effect = lower value
# In short: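 PDC + HUVEC + MSC complex spheroids; POLQ inhibitors ± partner drugs; top conc. at/near clinical Cmax, else 10 microM (SN-38 1 microM), half-log dilutions; 37 degrees C, 5% CO2.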
# [1] = second compound 0.0316 µM, first compound 0.000316 µM
# [2] = second compound 0.0316 µM, first compound 0.001 µM
# [3] = second compound 0.0316 µM, first compound 0.00316 µM
# [4] = second compound 0.0316 µM, first compound 0.01 µM
# [5] = second compound 0.0316 µM, first compound 0.0316 µM
# [6] = second compound 0.0316 µM, first compound 0.1 µM
# [7] = second compound 0.1 µM, first compound 0.000316 µM
# [8] = second compound 0.1 µM, first compound 0.001 µM
# [9] = second compound 0.1 µM, first compound 0.00316 µM
# [10] = second compound 0.1 µM, first compound 0.01 µM
# [11] = second compound 0.1 µM, first compound 0.0316 µM
# [12] = second compound 0.1 µM, first compound 0.1 µM
# [13] = second compound 0.316 µM, first compound 0.000316 µM
# [14] = second compound 0.316 µM, first compound 0.001 µM
# [15] = second compound 0.316 µM, first compound 0.00316 µM
# [16] = second compound 0.316 µM, first compound 0.01 µM
# [17] = second compound 0.316 µM, first compound 0.0316 µM
# [18] = second compound 0.316 µM, first compound 0.1 µM
# [19] = second compound 1 µM, first compound 0.000316 µM
# [20] = second compound 1 µM, first compound 0.001 µM
# [21] = second compound 1 µM, first compound 0.00316 µM
# [22] = second compound 1 µM, first compound 0.01 µM
# [23] = second compound 1 µM, first compound 0.0316 µM
# [24] = second compound 1 µM, first compound 0.1 µM
# [25] = second compound 3.16 µM, first compound 0.000316 µM
# [26] = second compound 3.16 µM, first compound 0.001 µM
# [27] = second compound 3.16 µM, first compound 0.00316 µM
# [28] = second compound 3.16 µM, first compound 0.01 µM
# [29] = second compound 3.16 µM, first compound 0.0316 µM
# [30] = second compound 3.16 µM, first compound 0.1 µM
# [31] = second compound 10 µM, first compound 0.000316 µM
# [32] = second compound 10 µM, first compound 0.001 µM
# [33] = second compound 10 µM, first compound 0.00316 µM
# [34] = second compound 10 µM, first compound 0.01 µM
# [35] = second compound 10 µM, first compound 0.0316 µM
# [36] = second compound 10 µM, first compound 0.1 µM
# [37] = second compound 0.0316 µM, first compound 0.316 µM
# [38] = second compound 0.0316 µM, first compound 1 µM
# [39] = second compound 0.0316 µM, first compound 3.16 µM
# [40] = second compound 0.0316 µM, first compound 10 µM
# [41] = second compound 0.1 µM, first compound 0.316 µM
# [42] = second compound 0.1 µM, first compound 1 µM
# [43] = second compound 0.1 µM, first compound 3.16 µM
# [44] = second compound 0.1 µM, first compound 10 µM
# [45] = second compound 0.316 µM, first compound 0.316 µM
# [46] = second compound 0.316 µM, first compound 1 µM
# [47] = second compound 0.316 µM, first compound 3.16 µM
# [48] = second compound 0.316 µM, first compound 10 µM
# [49] = second compound 1 µM, first compound 0.316 µM
# [50] = second compound 1 µM, first compound 1 µM
# [51] = second compound 1 µM, first compound 3.16 µM
# [52] = second compound 1 µM, first compound 10 µM
# [53] = second compound 3.16 µM, first compound 0.316 µM
# [54] = second compound 3.16 µM, first compound 1 µM
# [55] = second compound 3.16 µM, first compound 3.16 µM
# [56] = second compound 3.16 µM, first compound 10 µM
# [57] = second compound 10 µM, first compound 0.316 µM
# [58] = second compound 10 µM, first compound 1 µM
# [59] = second compound 10 µM, first compound 3.16 µM
# [60] = second compound 10 µM, first compound 10 µM
# 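Further: spheroids exposed to compounds for one week before readout.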
# 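Wherever viability, T/C is given: percent viability relative to DMSO vehicle wells taken as 100%.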
smiles,measurement,setting,value
Cn1ncnc1[C@H]1c2n[nH]c(=O)c3cc(F)cc(c23)N[C@@H]1c1ccc(F)cc1 + Cc1cccc(N(C)C(=O)C2C(O)CCN2c2nc(C)cc(C(F)(F)F)c2C#N)c1,IC50,second compound 0.0316 µM,> 100 nM
same,IC50,second compound 0.1 µM,> 100 nM
same,IC50,second compound 0.316 µM,> 100 nM
same,IC50,second compound 1 µM,> 100 nM
same,IC50,second compound 3.16 µM,> 100 nM
same,IC50,second compound 10 µM,> 100 nM
same,"viability, T/C",[1],106%
same,"viability, T/C",[2],87.5%
same,"viability, T/C",[3],92.1%
same,"viability, T/C",[4],102%
same,"viability, T/C",[5],105%
same,"viability, T/C",[6],99.3%
same,"viability, T/C",[7],108%
same,"viability, T/C",[8],99.5%
same,"viability, T/C",[9],101%
same,"viability, T/C",[10],105%
same,"viability, T/C",[11],108%
same,"viability, T/C",[12],108%
same,"viability, T/C",[13],104%
same,"viability, T/C",[14],104%
same,"viability, T/C",[15],109%
same,"viability, T/C",[16],105%
same,"viability, T/C",[17],110%
same,"viability, T/C",[18],97.3%
same,"viability, T/C",[19],101%
same,"viability, T/C",[20],101%
same,"viability, T/C",[21],111%
same,"viability, T/C",[22],106%
same,"viability, T/C",[23],115%
same,"viability, T/C",[24],104%
same,"viability, T/C",[25],116%
same,"viability, T/C",[26],106%
same,"viability, T/C",[27],101%
same,"viability, T/C",[28],109%
same,"viability, T/C",[29],104%
same,"viability, T/C",[30],97.1%
same,"viability, T/C",[31],106%
same,"viability, T/C",[32],107%
same,"viability, T/C",[33],111%
same,"viability, T/C",[34],102%
same,"viability, T/C",[35],99.1%
same,"viability, T/C",[36],98.6%
CC1COCCN1c1cc(C2(O)CC3CCC(C2)O3)c2cnn(-c3ccn[nH]3)c2n1 (stereo not drawn) + Nc1ccc(C#CCN(C(=O)Cc2ncc(C(F)(F)F)cc2C(F)(F)F)c2ccc(F)cc2)nn1,IC50,second compound 0.0316 µM,337 nM
same,IC50,second compound 0.1 µM,276 nM
same,IC50,second compound 0.316 µM,271 nM
same,IC50,second compound 1 µM,250 nM
same,IC50,second compound 3.16 µM,143 nM
same,IC50,second compound 10 µM,160 nM
same,"viability, T/C",[5],94.8%
same,"viability, T/C",[6],67.6%
same,"viability, T/C",[37],52.2%
same,"viability, T/C",[38],37.1%
same,"viability, T/C",[39],24.3%
same,"viability, T/C",[40],17.9%
same,"viability, T/C",[11],98.6%
same,"viability, T/C",[12],76.6%
same,"viability, T/C",[41],37.8%
same,"viability, T/C",[42],38.1%
same,"viability, T/C",[43],24.3%
same,"viability, T/C",[44],15.3%
same,"viability, T/C",[17],93.8%
same,"viability, T/C",[18],76.3%
same,"viability, T/C",[45],42%
same,"viability, T/C",[46],35.2%
same,"viability, T/C",[47],27.6%
same,"viability, T/C",[48],19.9%
same,"viability, T/C",[23],94.1%
same,"viability, T/C",[24],69.1%
same,"viability, T/C",[49],39.5%
same,"viability, T/C",[50],36.8%
same,"viability, T/C",[51],28.6%
same,"viability, T/C",[52],18.5%
same,"viability, T/C",[29],92.8%
same,"viability, T/C",[30],54.9%
same,"viability, T/C",[53],36.3%
same,"viability, T/C",[54],26.7%
same,"viability, T/C",[55],27.3%
same,"viability, T/C",[56],14.6%
same,"viability, T/C",[35],101%
same,"viability, T/C",[36],56.2%
same,"viability, T/C",[57],36.6%
same,"viability, T/C",[58],26.9%
same,"viability, T/C",[59],24.2%
same,"viability, T/C",[60],9.04%
Cn1ncnc1[C@H]1c2n[nH]c(=O)c3cc(F)cc(c23)N[C@@H]1c1ccc(F)cc1 + Nc1ccc(C#CCN(C(=O)Cc2ncc(C(F)(F)F)cc2C(F)(F)F)c2ccc(F)cc2)nn1,IC50,second compound 0.0316 µM,> 100 nM
same,IC50,second compound 0.1 µM,> 100 nM
same,IC50,second compound 0.316 µM,> 100 nM
same,IC50,second compound 1 µM,> 100 nM
same,IC50,second compound 3.16 µM,> 100 nM
same,IC50,second compound 10 µM,> 100 nM
same,"viability, T/C",[1],104%
same,"viability, T/C",[2],106%
same,"viability, T/C",[3],99.7%
same,"viability, T/C",[4],95.1%
same,"viability, T/C",[5],88.5%
same,"viability, T/C",[6],86.7%
same,"viability, T/C",[7],112%
same,"viability, T/C",[8],91.6%
same,"viability, T/C",[9],107%
same,"viability, T/C",[10],113%
same,"viability, T/C",[11],108%
same,"viability, T/C",[12],77.6%
same,"viability, T/C",[13],106%
same,"viability, T/C",[14],97.3%
same,"viability, T/C",[15],111%
same,"viability, T/C",[16],97.2%
same,"viability, T/C",[17],104%
same,"viability, T/C",[18],83%
same,"viability, T/C",[19],108%
same,"viability, T/C",[20],99.9%
same,"viability, T/C",[21],110%
same,"viability, T/C",[22],93.9%
same,"viability, T/C",[23],91.2%
same,"viability, T/C",[24],77.6%
same,"viability, T/C",[25],99.4%
same,"viability, T/C",[26],98%
same,"viability, T/C",[27],103%
same,"viability, T/C",[28],90.5%
same,"viability, T/C",[29],99.3%
same,"viability, T/C",[30],95.7%
same,"viability, T/C",[31],94.8%
same,"viability, T/C",[32],98.7%
same,"viability, T/C",[33],101%
same,"viability, T/C",[34],90.9%
same,"viability, T/C",[35],89.9%
same,"viability, T/C",[36],65.1%
O=c1[nH]cc(F)c(=O)[nH]1 + Nc1ccc(C#CCN(C(=O)Cc2ncc(C(F)(F)F)cc2C(F)(F)F)c2ccc(F)cc2)nn1,IC50,second compound 0.0316 µM,479 nM
same,IC50,second compound 0.1 µM,509 nM
same,IC50,second compound 0.316 µM,529 nM
same,IC50,second compound 1 µM,529 nM
same,IC50,second compound 3.16 µM,278 nM
same,IC50,second compound 10 µM,437 nM
same,"viability, T/C",[5],101%
same,"viability, T/C",[6],82.2%
same,"viability, T/C",[37],56.6%
same,"viability, T/C",[38],38.9%
same,"viability, T/C",[39],35.9%
same,"viability, T/C",[40],37.5%
same,"viability, T/C",[11],93.3%
same,"viability, T/C",[12],92.2%
same,"viability, T/C",[41],53.7%
same,"viability, T/C",[42],43.5%
same,"viability, T/C",[43],44.9%
same,"viability, T/C",[44],45.6%
same,"viability, T/C",[17],103%
same,"viability, T/C",[18],77.6%
same,"viability, T/C",[45],60.6%
same,"viability, T/C",[46],35.6%
same,"viability, T/C",[47],42%
same,"viability, T/C",[48],39.7%
same,"viability, T/C",[23],97.5%
same,"viability, T/C",[24],89.7%
same,"viability, T/C",[49],57.5%
same,"viability, T/C",[50],40.7%
same,"viability, T/C",[51],38.4%
same,"viability, T/C",[52],39.7%
same,"viability, T/C",[29],95.1%
same,"viability, T/C",[30],90.5%
same,"viability, T/C",[53],44.8%
same,"viability, T/C",[54],41.6%
same,"viability, T/C",[55],36.4%
same,"viability, T/C",[56],37.5%
same,"viability, T/C",[35],91.1%
same,"viability, T/C",[36],75.7%
same,"viability, T/C",[57],55.5%
same,"viability, T/C",[58],38.2%
same,"viability, T/C",[59],35.7%
same,"viability, T/C",[60],37.6%

# — PubChem BioAssay AID1963843 (Molecular Pharmacology Branch, DTP, NCI, 2024)
